Assay results reported in patent publication US5846988A, “Thiazolidine-4-carboxylic acid derivatives as cytoprotective agents” (Alcon Laboratories, Inc., priority 1997, dated 1998).
Read-outs that look alike come from different tables or passages of the source.

Legend:
[1] = tested on: excised pigmented rabbit lenses; assay: Inhibition of lens changes caused by oxidative damage (diquat-exposed excised pigmented rabbit lenses; GSH loss and MDA formation); type: cell-based; details: Oryctolagus cuniculus, 1 mM test compound, 1 mM diquat, 3 h at 37° C.
Protocol: (§1) Evaluation of Cytoprotective Ability
Inhibition of lens changes caused by oxidative damage by representative compounds of the present invention as compared with the cysteine prodrug, 2-oxo-4-thiazolidine carboxylic acid, (Sigma Chemical Company, St Louis Mo.) is shown in Table 2 below. The cytoprotective effect was measured using excised pigmented rabbit lenses exposed to diquat using the method of Bhuyan (Free Radical Biology & Medicine, volume 12, pages 251-261, 1992). Normal lenses were extracted from the eyes immediately after sacrificing the pigmented rabbits. The lens were incubated in modified Krebs-Ringers bicarbonate medium containing 1 mM diquat dibromide monohydrate (Imperial Chemical Industries Ltd., London) and the test compound (1 mM). A non-test drug containing group was used as control. The lenses were incubated for 3 h at 37° C. in a shaking water bath. At the end of the incubation period each lens was removed and homogenated. Glutathione (GSH) and maliondialdehyde (MDA) levels were established by treating the supernatant with trichloracetic acid to precipitate proteins, and then using aliquots of the TCA supernatant to determine glutathione and MDA levels according to standard procedures. Degree of protection was measured as inhibition of GSH loss and inhibition of malondialdehyde formation.

[2] = tested on: bovine retinal pieces; assay: Inhibition of lipid peroxide formation (TBARS) in hypoxic/reoxygenated bovine retinal pieces; type: cell-based; details: Bos taurus, hypoxia 1 h, test agent added after 50 min, reoxygenation 1 h; for inhibition at 100 µM: 0.1 mM, read-out: % Inhibition of TBARS Production (0.1 mM); for IC50: read-out: IC50 (inhibition of TBARS production)
Protocol: as §1
Inhibition of lipid peroxide formation by representative compounds of the present invention as compared with the cysteine prodrug, 2-oxo-4-thiazolidine carboxylic acid, (Sigma Chemical Company, St Louis Mo.) is shown in Table 1 below. The cytoprotective effect of the compound was measured using bovine retinal pieces. Retinal tissues were incubated in hypoxic media for 1 h. After 50 min. of hypoxia the test agents were added to the media to allow 10 min. for the drug to diffuse into the tissue prior to reoxygenation. The vehicle by itself, was added to the non-drug group. Following the incubation period, tissue was reoxygenated for 1 h. Lipid peroxidation was assessed by the formation of thiobarbituric acid reacting substances (TBARS). The tissues were homogenized and added to the trichloroacetic acid-thiobarbituric acid reagent and heated in the presence of BHT. The homogenate was filtered and the absorbance of the supernant was measured spectrophotometrically. A double derivative technique was used to calculate the concentration of TBARS present in each sample. Quantiation was based on a molar extinction coefficient of 1.56×10^5.

[3] = read-out: % Inhibition GSH loss
[4] = read-out: % Inhibition MDA formation

| Compound | inhibition at 1000 µM [1, 3] [%] | inhibition at 1000 µM [1, 4] [%] | inhibition at 100 µM [2] [%] | IC50 [2] [µM] |
| --- | --- | --- | --- | --- |
| CC(C)(C)c1cc(C2N[C@H](C(=O)O)CS2)cc(C(C)(C)C)c1O (stereo partly drawn) [Example 1, (4R)-2-(3,5-di-tert-butyl-4-hydroxyphenyl)-4-thiazolidine carboxylic acid] | 40 | 76 | 95 | 0.05 |
| O=C1NC(C(=O)O)CS1 (stereo not drawn) [2-oxo-4-thiazolidine carboxylic acid, reference compound] | 9.4 | 28 | -38 |  |
| Cc1c(C)c2c(c(C)c1O)CCC(C)(C1N[C@H](C(=O)O)CS1)O2 (stereo partly drawn) [Example 2, (4R)-2-(6-hydroxy-2,5,7,8-tetramethyl-3,4-dihydro-2H-benzo[1,2-b]pyran-2-yl)-4-thiazolidine carboxylic acid] |  |  | 90 | 3 |
